Measurements taken from US20230159931A1, “TARGETING THE PALMOTYLATION/DEPALMOTYLATION CYCLE TO TREAT INFLAMMATORY DISEASES” (CORNELL UNIVERSITY, priority 2020, published 2023).

Legend:
APT2 = target: T1, APT2 (Homo sapiens, UniProt O95372); assay: STAT3 palmitoylation by Alk14 labelling and in-gel fluorescence after APT2 inhibition or knockdown; type: cell-based; conditions: DHHC7-knockout HEK293T cells reintroduced with HA-DHHC7 and Flag-STAT3; LYPLA2 siRNA or 20 μM of ML349 for 36 h
T1 construct: treated with LYPLA2 siRNA or 20 μM of ML349 for 36 h before Alk14 labelling; endogenous in cells; host or cells: DHHC7-knockout HEK293T cells re-expressing HA-DHHC7 and Flag-STAT3
T1 sequence (O95372 whole entry): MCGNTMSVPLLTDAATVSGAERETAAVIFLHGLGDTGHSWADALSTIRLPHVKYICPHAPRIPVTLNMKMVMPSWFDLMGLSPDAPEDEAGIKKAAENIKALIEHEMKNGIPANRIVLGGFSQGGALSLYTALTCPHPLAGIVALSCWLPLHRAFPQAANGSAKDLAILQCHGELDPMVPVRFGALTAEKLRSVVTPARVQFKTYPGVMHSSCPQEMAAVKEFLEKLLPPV
Excerpt: FIGS. 2A-2H. APT2 is a depalmitoylase of STAT3 and palmitoylation/depalmitoylation promotes p-STAT3 nuclear localization. (A) C108 is the major palmitoylation site of STAT3. HEK293T cells were transfected with HA-DHHC7 and Flag-STAT3 (wild-type or mutants) and labelled with Alk14. STAT3 was pulled down and subjected to Alk14 labelling and western blot analyses. (B) Left, distribution of wild-type or C108S mutants of STAT3 and p-STAT3 in the subcellular fractions of DHHC7-knockout HEK293T cells into which DHHC7 or DHHS7 were reintroduced. Right, quantification of the relative p-STAT3 levels. (C) The subcellular localization of STAT3 and p-STAT3 was analysed using confocal imaging after different EGFP-STAT3 constructs and HA-tagged DHHC7 were transfected into DHHC7-knockout HEK293T cells. […] (D) In HEK293T cells, overexpression of wild-type APT2—but not the C2S or S122A mutants—decreased the palmitoylation level of Flag-STAT3 as determined by Alk14 labelling. […] The palmitoylation of STAT3 was determined by in-gel fluorescence (left) and quantified (right). […] DHHC7-knockout HEK293T cells were reintroduced with HA-DHHC7 and Flag-STAT3, and treated with LYPLA2 siRNA or 20 μM of ML349 for 36 h before Alk14 labelling and in-gel fluorescence detection. […] Right, quantification of the relative STAT3 and p-STAT3 levels in these fractions. […] Right, quantification of the relative STAT3 levels in these fractions. […]

SMAD2 S-palmitoylation = SMAD2 S-palmitoylation in HEK293T cells treated with APT inhibitors (Alk14, in-gel fluorescence); type: cell-based, human; conditions: 10 μM APT inhibitors for 24 hours; HEK293T cells with HA-DHHC7 and Flag-SMAD2
Excerpt: FIGS. 7A-7G. APT2 is the depalmitylase of SMAD2 and C-terminal phosphorylation of SMAD2 is S-palmitoylation independent. (A) C-terminal phosphorylation (Ser465/Ser467) levels of Flag-SMAD2 (p-SMAD2(C2)) in HEK293T cells expressing HA-tagged mouse DHHC1-23. SMAD2 was pulled down with Flag beads and subjected to western blot analyses. (B) HEK293T cells were transfected with HA-tagged DHHC7 and Flag-SMAD2 WT and C41/81S mutant plasmid and treated with Alk14. The S-palmitoylation level of immunoprecipitated SMAD2 was visualized by in-gel fluorescence and the p-SMAD2(C2) level was detected by western blot analyses. […] The S-palmitoylation level of immunoprecipitated SMAD2 was visualized by in-gel fluorescence. […] The cells were labeled with Alk14 and the S-palmitoylation of SMAD2 was determined by in-gel fluorescence. […] The cells were labeled with Alk14 and the S-palmitoylation of SMAD2 was determined by in-gel fluorescence and the p-SMAD2(C2) level was detected by western blot analyses. […]
Cells were treated with 50 μM palmitic acid analogue Alkyne 14 (Alk14) for 5 h and the collected and lysed in 1% NP-40 lysis buffer (25 mM Tris-HCl pH 8.0, 150 mM NaCl, 10% glycerol, 1% Nonidet P-40) with protease inhibitor cocktail. […] The protein concentration was determined by Bradford assay (23200, Thermo Fisher). […]

With COc1ccc(N2CCN(C(=O)c3cc4c(s3)-c3ccccc3S(=O)(=O)C4)CC2)cc1 [ML349] the STAT3 palmitoylation (APT2) was “increased STAT3 palmitoylation” and the “SMAD2 S-palmitoylation signal” value (SMAD2 S-palmitoylation) was “significantly enhanced”.
